Literature values in US6517854B2, “Antimicrobial sanitizing lotion with skin protection properties” (priority 1999, dated 2003).

Columns and labels:
[1] = tested on: gram-negative bacteria; conditions: organisms listed in the 1st table r28-r63
[2] = tested on: gram-positive bacteria; conditions: organisms listed in the 1st table r1-r26
[3] = tested on: fungi and yeasts; conditions: organisms listed in the 1st table r65-r73

Oc1cc(Cl)ccc1Oc1ccc(Cl)cc1Cl [TRICLOSAN, 2,4,4′-trichloro-2′-hydroxydiphenyl ether]
demonstrated efficacy: efficacy against gram-negative bacteria [1] | efficacy against gram-positive bacteria [2] | efficacy against fungi and yeasts [3]
